Measurements from US5254726A, “No-carrier-added (NCA) aryl (18E) fluorides via the nucleophilic aromatic substitution of electron rich aromatic rings” (priority 1991, dated 1993).
“Also recorded” adds a separate entry of the source. Read-outs that look alike come from different tables or passages of the source.

What was measured:
[1] = tested on: adrenergic nerve terminals; conditions: cited from earlier work; for neuronal uptake and storage: literature
dog heart = conditions: Wieland et al. 1990, Rosenspire et al. 1989; cited from earlier work
human heart = conditions: Schwaiger et al. 1990, Kopin 1990; cited from earlier work
[2] = literature; cited from earlier work
[3] = tracers administered in vivo; Goldstein et al. 1990, Mislankar et al. 1988; cited from earlier work
[4] = tested on: baboon mycocardium (left ventricular wall and septum); assay: PET study of baboon heart after injection of racemic 6-[^18 F]FNE; type: in vivo, baboon (Papio anubis)
Method: (§1) FIG. 8 is a time-activity curve for F-18 in the baboon mycocardium (left ventricular wall and septum) after injection of 5 mCi of racemic 6-[^18 F]FNE. FIG. 9 is a graph showing plasma clearance of F-18 in the baboon after injection of racemic 6-[^18 F]FNE. […] Radioactivity remained at 0.032% of the peak activity by 120 minutes post injection. The ratio of myocardium to plasma was 7 at 5 minutes and 11.2 at 135 minutes. The experiment was carried out as follows:
(§2) Adult female baboons were anesthetized and prepared for PET studies as described by Dewey et al., Synapse, 5, 213 (1990) the description of which is incorporated by reference herein. A solution of racemic 6-[^18 F]FNE (5 mCi, 0.4 μg) in 3 mL of saline was injected intravenously. Scanning was performed for 140 minutes in a Computer Technology Imaging (CTI) positron tomograph (model 931-08/12; 15 slice, 6.5-mm slice thickness, full width at half maximum (FWHM) with an in-plane resolution of 6.0×6.0 mm (FWHM). The following scanning protocol was used: ten 30-s scans, followed by five 60-s scans, followed by ten 5-minute scans, followed by eight 10-minute scans. In every case, an initial transmission scan was performed 2.0 minutes prior to radiotracer injection in order to determine the proper position of the animal in the gantry. Upon completion of this scan, adjustments in position were made as necessary and a regular transmission scan (10 minutes) was performed in order to correct for the attenuation of the annihilation photons. The tomograph was cross calibrated with the well-counter used for the measurement of radioactivity in the plasma samples. A rectilinear scan was performed by placing the baboon's head in the gantry and moving through the rostral caudal extent of the animal (10-mm increments) to include the bladder at the most caudal level. Scanning was performed for 1.5 minutes at each position. Vital signs including heart and respiratory rate were monitored and recorded throughout the length of the study.
The time-activity curve for F-18 after the injection of 6-[^18 F]FNE was generated from a region of interest over the left ventricular wall and the septum. Immediately following completion of the dynamic acquisition, a rectilinear scan (qualitative) was performed beginning at the head and continuing throughout the rostral-caudal extent of the trunk.

[5] = Plasma/blood clearance of F-18 in the baboon; type: in vivo, baboon (Papio anubis); conditions: racemic, 5 mCi i.v.
Method: as §1
Adult female baboons were anesthetized and prepared for PET studies as described by Dewey et al., Synapse, 5, 213 (1990) the description of which is incorporated by reference herein. A solution of racemic 6-[^18 F]FNE (5 mCi, 0.4 μg) in 3 mL of saline was injected intravenously. […] The tomograph was cross calibrated with the well-counter used for the measurement of radioactivity in the plasma samples. […] Vital signs including heart and respiratory rate were monitored and recorded throughout the length of the study.

[6] = set-up: species or system baboon (Papio anubis); conditions: in vivo
Method: as §2, with “A rectilinear scan was performed by placing the baboon's head in the gantry and moving through the rostral caudal extent of the animal (10-mm increments) to include the bladder at the most caudal level. Scanning was performed for 1.5 minutes at each position.” left out, “study. […]” for “study.”

[7] = Vital signs including heart and respiratory rate during PET study; type: in vivo, baboon (Papio anubis); conditions: at any time during the study; 5 mCi, 0.4 μg i.v.
Method: as §2, with “A rectilinear scan was performed by placing the baboon's head in the gantry and moving through the rostral caudal extent of the animal (10-mm increments) to include the bladder at the most caudal level. Scanning was performed for 1.5 minutes at each position.” left out, “study. […]” for “study.”

vesicular transporter = conditions: Matthaei et al. 1988; cited from earlier work
dopamine β-hydroxylase [8] = type: biochemical; conditions: pH 5.7, 30° C.; for product formed by dopamine β-hydroxylase: substrate incubation, chiral HPLC
Method: Two enzyme incubations, with dopamine and 6-fluorodopamine, respectively, were performed simultaneously, as follows:
12(a) Dopamine Hydroxylation. A mixture of 0.5 mg of dopamine, potassium phosphate buffer (0.3 mL, pH 5.7), 0.5M ascorbic acid (0.02 mL, pH 5.7), 1M sodium formate (0.05 mL), and dopamine β-hydroxylase solution (0.05 mL) was stirred in a closed vial at 30° C. The cap was removed and the vial was shaken periodically. An aliquot (ca. 1 μL) was withdrawn and subjected to chiral HPLC analysis as the reaction progressed. HPLC conditions were as follows: Crownpak CR (+) columns, 15×0.46 cm, 254 nm, 0.02M HClO4, 0.7 mL/min.
12(b) 6-Fluorodopamine Hydroxylation. The same procedure was used as described in 12(a), except 0.4 mg of 6-fluorodopamine, kindly provided by Dr. Kenneth Kirk at the National Institutes of Health, was used as a substrate.
Radiat. Isot., 41, 463 (1990) the disclosure of which is incorporated by reference herein, for [^11 C]octopamine enantiomers when a Crownpak CR(+) HPLC column was used.

dopamine β-hydroxylase [9] = conditions: Levin et al. 1960; Goldstein et al. 1962; cited from earlier work

C[C@H](N[11CH3])[C@H](O)c1cccc(O)c1 [[^11 C]m-hydroxyephedrine]
neuronal uptake and storage [1]: share the same uptake and storage mechanisms as norepinephrine
images of the neuronal distribution (dog heart): excellent images
images of the neuronal distribution (human heart): excellent images
metabolic stability [2]: metabolically stable

NCCc1cc(O)c(O)cc1[18F] [[^18 F]dopamine, 6-[^18 F]fluorodopamine]
vasoactivity / hemodynamic effects [3]: hemodynamic effects

NCC(O)c1cc(O)c(O)cc1[18F] (racemic) [racemic 6-[^18 F]FNE, 6-[^18 F]fluoronorepinephrine]
peak concentration of F-18 in myocardium ([4]; 10 minutes post injection, 5 mCi racemic, i.v.): 0.042 % of the injected does/cc
ratio of myocardium to plasma ([4]; at 5 minutes, 5 mCi i.v.): 7
ratio of myocardium to plasma ([4]; at 135 minutes, 5 mCi i.v.): 11.2
uptake and retention/clearance of F-18 in the baboon heart ([4]; racemic, 5 mCi i.v.): high uptake and retention; also recorded: high uptake and a slow clearance
clearance from blood [5]: rapid clearance from blood
distribution of radioactivity [6]: Radioactivity was distributed in the parotid glands, the heart, liver, and bladder
change in vital signs [7]: no change in vital signs

NC[C@H](O)c1ccc(O)c(O)c1 [norepinephrine]
stereoselectivity of neuronal uptake ([1]; Matthaei et al. 1988): not stereoselective
stereoselectivity for vesicular transporter (vesicular transporter): only the levorotatory enantiomer serves as a substrate for the vesicular transporter

NCCc1cc(O)c(O)cc1F [6-fluorodopamine]
product formed by dopamine β-hydroxylase (dopamine β-hydroxylase [8]): a new HPLC peak at 18 minutes appeared
neuronal uptake and storage [1]: share the same presynaptic mechanisms for the uptake, storage, and synthesis as the parent molecules

NCCc1ccc(O)c(O)c1 [dopamine]
time to appearance of (-)-NE peak (dopamine β-hydroxylase [8]; dopamine as substrate): less than 1 hour
product formed by dopamine β-hydroxylase (dopamine β-hydroxylase [8]): (+)-NE was not observed
enantiospecific conversion by dopamine β-hydroxylase (dopamine β-hydroxylase [9]): enantiospecifically convert dopamine to (-)-norepinephrine

NCC(O)c1cc(O)c(O)cc1F (racemic) [6-fluoronorepinephrine]
neuronal uptake and storage [1]: share the same presynaptic mechanisms for the uptake, storage, and synthesis as the parent molecules
neuronal uptake and storage ([1]; listed as racemic 6-fluoronorepinephrine): taken up and stored by adrenergic nerve terminals

C[C@H](N)[C@H](O)c1cc(O)ccc1[18F] [[^18 F]fluorometaraminol]
neuronal uptake and storage [1]: share the same uptake and storage mechanisms as norepinephrine
images of the neuronal distribution (dog heart): excellent images
images of the neuronal distribution (human heart): excellent images
vasoactivity / hemodynamic effects [3]: hemodynamic effects
metabolic stability [2]: metabolically stable
